Source: US20180200257A1, “METHODS FOR THE TREATMENT OF INFLAMMATORY DISORDERS” (Galapagos NV, priority 2015, published 2018)

Legend:
[1] = test system: Subjects With Active Crohn's Disease With Evidence of Mucosal Ulceration; assay: Study 3 - Inflammatory Bowel Disease Questionnaire (IBDQ) scores; type: in vivo, human; settings: 200 mg, LOCF
Description: Double-Blind, Randomized, Placebo-Controlled, Multi-Centre Study to Investigate the Efficacy and Safety of Compound 1 in Subjects With Active Crohn's Disease With Evidence of Mucosal Ulceration. This is a double-blind, randomized, placebo-controlled, multi-centre Phase 2 study to investigate the efficacy and safety of Compound 1 administered once daily for the treatment of active CD with evidence of mucosal ulceration. The pharmacokinetics (including a PK substudy) and pharmacodynamics of Compound 1 and metabolite in CD will also be characterised. A total of 180 eligible subjects will be randomized to receive Compound 1 or placebo in addition to their stable background treatment (eg, corticosteroids, aminosalicylates, or CD-related antibiotics). The study will consist of 2 parts, with total treatment duration of 20 weeks. Randomization in Part 1 will be stratified according the subject's previous anti-TNF exposure/response, CRP level at Screening, and oral corticosteroid use at visit Day -1. After the first 10 weeks of treatment in Part 1, patients will be re-randomized for Part 2 as shown in the diagram below and will be stratified according to the subject's clinical response, previous anti-TNF exposure/response, and oral corticosteroid use at visit Day -1. [table] The Inflammatory Bowel Disease Questionnaire (IBDQ) is a questionnaire for health-related quality of life assessment in patients with inflammatory bowel diseases: ulcerative colitis and Crohn's disease. It consists of 32 questions divided into four groups: bowel symptoms (10 items), systemic symptoms (5 items), emotional function (12 items) and social function (5 items). Every question has graded responses from 1 to 7, and thus the total score is ranging from 32 to 224 with higher scores representing better quality of life. The IBDQ is a validated assessment tool that reflects important changes in the quality of life of patients with IBD (adapted from […] et al, Inflamm Bowel Dis, Volume 10, Number 3, May 2004)

[2] = test system: Subjects With Active Crohn's Disease With Evidence of Mucosal Ulceration; assay: Study 3 - Histopathology score; type: in vivo, human; settings: 200 mg, LOCF
Description: Double-Blind, Randomized, Placebo-Controlled, Multi-Centre Study to Investigate the Efficacy and Safety of Compound 1 in Subjects With Active Crohn's Disease With Evidence of Mucosal Ulceration.
This is a double-blind, randomized, placebo-controlled, multi-centre Phase 2 study to investigate the efficacy and safety of Compound 1 administered once daily for the treatment of active CD with evidence of mucosal ulceration. The pharmacokinetics (including a PK substudy) and pharmacodynamics of Compound 1 and metabolite in CD will also be characterised.
A total of 180 eligible subjects will be randomized to receive Compound 1 or placebo in addition to their stable background treatment (eg, corticosteroids, aminosalicylates, or CD-related antibiotics). The study will consist of 2 parts, with total treatment duration of 20 weeks. Randomization in Part 1 will be stratified according the subject's previous anti-TNF exposure/response, CRP level at Screening, and oral corticosteroid use at visit Day −1.
After the first 10 weeks of treatment in Part 1, patients will be re-randomized for Part 2 as shown in the diagram below and will be stratified according to the subject's clinical response, previous anti-TNF exposure/response, and oral corticosteroid use at visit Day -1.
Histopathology data is collected from patients biopsy, and evaluated according to the procedure reported in D'haens et al., 1998.

[3] = Anti-TNF experienced non-responders
[4] = baseline corticosteroid use: with steroids
[5] = baseline corticosteroid use: without steroids

O=C(Nc1nc2cccc(-c3ccc(CN4CCS(=O)(=O)CC4)cc3)n2n1)C1CC1 [Compound 1, cyclopropanecarboxylic acid {5-[4-(1,1-dioxo-thiomorpholin-4-ylmethyl)-phenyl]-[1,2,4]triazolo[1,5-a]pyridin-2-yl}-amide]
IBDQ Bowel symptoms ([1]; Baseline): 41.07 | IBDQ Emotional status ([1]; Baseline): 45.91 | IBDQ Social functioning ([1]; Baseline): 19.26 | IBDQ Systemic symptoms ([1]; Baseline): 16.32 | IBDQ mean CFB ([1]; Baseline): 123.00 | IBDQ Bowel symptoms ([1]; week 10): 9.96 | IBDQ Emotional status ([1]; week 10): 12.07 | IBDQ Social functioning ([1]; week 10): 6.19 | IBDQ Systemic symptoms ([1]; week 10): 5.73 | IBDQ mean CFB ([1]; week 10): 33.82 | Overall total score mean, % CFB at week 10 ([2]; Anti-TNF Naïve): −14% | Overall total score mean, CFB at week 10 ([2]; Anti-TNF Naïve): −3.9 | Overall total score mean, baseline ([2]; Anti-TNF Naïve): 20.3 | Overall total score mean, week 10 ([2]; Anti-TNF Naïve): 16.1 | Overall total score mean, % CFB at week 10 [2, 3]: −7% | Overall total score mean, CFB at week 10 [2, 3]: −3.2 | Overall total score mean, baseline [2, 3]: 25.0 | Overall total score mean, week 10 [2, 3]: 21.6 | Overall total score mean, % CFB at week 10 [2, 4]: −15% | Overall total score mean, CFB at week 10 [2, 4]: −4.3 | Overall total score mean, baseline [2, 4]: 24.9 | Overall total score mean, week 10 [2, 4]: 20.3 | Overall total score mean, % CFB at week 10 [2, 5]: −5% | Overall total score mean, CFB at week 10 [2, 5]: −2.7 | Overall total score mean, baseline [2, 5]: 20.7 | Overall total score mean, week 10 [2, 5]: 17.9 | Overall total score mean, % CFB at week 10 ([2]; overall): −10% | Overall total score mean, CFB at week 10 ([2]; overall): −3.5 | Overall total score mean, baseline ([2]; overall): 22.8 | Overall total score mean, week 10 ([2]; overall): 19.1 | Overall total score mean, % CFB at week 10 ([2]; screening CRP ≤ 10 ml/L): −20% | Overall total score mean, CFB at week 10 ([2]; screening CRP ≤ 10 ml/L): −4.8 | Overall total score mean, baseline ([2]; screening CRP ≤ 10 ml/L): 21.8 | Overall total score mean, week 10 ([2]; screening CRP ≤ 10 ml/L): 17.1 | Overall total score mean, % CFB at week 10 ([2]; screening CRP ≥ 10 mg/L): 4% | Overall total score mean, CFB at week 10 ([2]; screening CRP ≥ 10 mg/L): −1.8 | Overall total score mean, baseline ([2]; screening CRP ≥ 10 mg/L): 24.3 | Overall total score mean, week 10 ([2]; screening CRP ≥ 10 mg/L): 21.8
